# Where two headings read alike, the source gives them in different places. Where no end group is shown, it is not given here.
# Key:
# [1] = Half-life in liver homogenate (HPLC); assay type: in vitro ADME; conditions: 37° C., sample 0.4 mg/mL or 0.8 mg/mL; for half-life: read-out: t1/2 in liver homogenate (converted)
# Experimental: Experimental method: Prepare 0.4 mg/mL or 0.8 mg/mL sample aqueous solution in centrifuge tube, adding 50 μL liver homogenate. Then incubate for different time in 37° C. water bath. Terminate the reaction and precipitate liver homogenate protein by heating the mixture in boiling water for 5 minutes. Centrifuge it (10000 rpm) for 10 minutes. Analyze the supernatant by HPLC. The data was statistically analyzed by Origin Prof. 5.0.
# HPLC: Column temperature: 25° C.; Flow rate 1.0 mL/min; Detection wavelength: 200 nm; Mobile phase A: 0.1% TFA/H2O; Mobile phase B: 0.1% TFA/70% CH3CN.
# spleen cell = test: Interferon-γ production of spleen cells stimulated by Con A (double antibody sandwich ELISA); assay type: cell-based; conditions: for Concentration of IFN-γ: Con A 0.5 μg/mL, 24 hours, n = 3; for Enhancement percentage: versus Con A alone
# Experimental: Prepare spleen cell suspension in sterile condition. Adjust cell concentration to 5×10^6 cell/mL by adding RPMI-1640 culture with 20% bovine serum. Add 0.5 mL cell suspension, 0.25 mL Con A (final concentration is 0.5 μg/mL) and 0.25 mL samples with different concentrations in 24-well plate; and add RPMI-1640 culture in control wells. Incubate the plates in a 5% CO2 chamber at 37° C. for 24 hours. Centrifuge and collect supernatant, test the content of IFN-γ in supernatant by double antibody sandwich ELISA. The protocol is according to the instruction on ELISA kit.
# [2] = Plasma concentration / pharmacokinetics in mouse (competitive ELISA); assay type: in vivo; conditions: 300 μg per mouse, injected peritoneally, parameters in 24 h
# Experimental: Coating antigen: Dilute Tα1 detection antigen stock solution to a final concentration of 2 μg/mL with coating solution, and add it into the wells of ELISA plate for 0.1 mL per well, and incubate at 4° C. for 5 days. Then wash the ELISA plate 3 times with washing buffer, each 0.2 mL/well and 3 min/time. Add 0.2 mL blocking buffer to each well, incubate for 1.5 hours at 37° C., wash plate 2 times by washing buffer, and spin dried.
# Sample preparation: Weight sample accurately, dissolve it in saline to a concentration of 1.5 mg/mL. Administrate 0.2 Ml by injection to each mouse peritoneally. Collect blood sample in 3 min, 20 min, 40 min, 1 h, 2 h, 3 h, 6 h, 8 h, 12 h, and 24 h. Collect serum by centrifuge the blood samples for 5 minutes at 10000 rpm, stored at −20° C. in a freezer. o prepare test sample, […] was added by 0.1 mL 1:1500 rabbit anti-Tα1 serum (final concentration is 1:6000), and 0.2 mL CD-1® mouse serum, and […]. Prepare blank control at the same time. Total volume is 0.4 mL. Incubate for 2 hours at 37° C. To prepare standard sample, Tα1 0.1 mL with different concentrations from 0.0004 to 400 μg/mL was added by 0.1 mL 1:1500 rabbit anti-Tα1 serum (final concentration is 1:6000), and 0.2 mL CD-1® mouse serum. Prepare blank control at the same time. Total volume is 0.4 mL. Incubate for 2 hours at 37° C.
# Sample Testing Add the prepared test sample and standard sample to ELISA plate, 0.1 mL/well, reacting for 1 hour in 37° C. chamber. Wash the plates 3 times, spin dryed. Add substrate 0.1 mL/well for 10 minutes. Add 2 mol/L H2SO4 0.05 mL to each well to terminate the reaction. Measure the OD value at 450 nm. Plot the standard curve with the concentration of Tα1 standard sample as abscissa and OD value as vertical coordinate. Calculate the content of test sample according to this standard curve.
# [3] = system: T lymphocyte (spleen cell); test: T lymphocyte proliferation stimulated by Con A (3H-TdR incorporation); assay type: cell-based, mouse; conditions: for 3H-TdR incorporation (cpm, x ± SD): Con A 0.5 μg/mL, 72 hours, n = 4; for Enhancement percentage: versus Con A alone
# Experimental: Sacrifice mouse by draining artery blood, remove spleen in sterile condition, and make it to spleen cell suspension. After red blood cell lysis, wash for 3 times, and stain with Trypan Blue to count the living cells. The amount of living cells should be more than 95%. Dilute the cell concentration to 5×10^6 cell/mL by adding RPMI-1640 culture with 10% bovine serum. Add spleen cell suspension to a sterilized 96-well plate for 100 μL per well. The total amount is 200 μL per well (including 50 μL Con A and 50 μL medicament). Each sample concentration is repeated fro 3-4 wells. Incubate the plate in a 5% CO2 chamber for 72 hours, add 10 μci/mL ^3H-TdR 20 μL per well 16 hours before termination of the incubation, giving rise to a final concentration of 1.0 μci (37.0 KBq)/mL. Collect cells on filter membrane by using Herveste 96 cell harvester, dried in 80° C. oven for 20 minutes or dried in air. Put the dried filter membrane into 1450-423 microBeta sample bag, add scintillation liquid, and measure radioactivity (cpm) in Perkin Elmer MicroBeta Trilux 1450 Scintillation Counter.
# [4] = serum, ip, 300 ug/animal, n = 3, read-out: Cmax
# [5] = serum, ip, 300 ug/animal, n = 3, read-out: Tmax
substance,measurement,setting,value
Ac-CSDAAVDTSSEITTKDLKEKKEVVEEAEN-OH [BMJBT008],half-life,[1],< 1 h
same,Concentration of IFN-γ,"spleen cell; Table 1-3, sample 1 μg/mL",4323.8 ± 187.0 pg/mL
same,Enhancement percentage,"spleen cell; Table 1-3, sample 1 μg/mL",+41.6%
same,Concentration of IFN-γ,"spleen cell; Table 1-3, sample 10 μg/mL",3115.0 ± 195.8 pg/mL
same,Enhancement percentage,"spleen cell; Table 1-3, sample 10 μg/mL",+2.0%
same,Concentration of IFN-γ,"spleen cell; Table 1-3, sample 100 μg/mL",2975.5 ± 182.6 pg/mL
same,Enhancement percentage,"spleen cell; Table 1-3, sample 100 μg/mL",−2.6%
same,AUC,[2]; n = 3,1210 ng·h/mL
same,Cmax,[2]; [4],430 ng/mL
same,Tmax,[2]; [5],0.333 h
"Ac-[Cys^16(mPEG5000-MAL)]Tα1 (Ac-SDAAVDTSSEITTKDC(mPEG5000‑maleimide)KEKKEVVEEAEN; UniProt P06454 2-29, looked up, variant L16C) [BMJB016]",Concentration of IFN-γ,"spleen cell; Table 1-1, sample 1 μg/mL",1426.8 ± 36.8 pg/mL
same,Enhancement percentage,"spleen cell; Table 1-1, sample 1 μg/mL",+89.8%
same,Concentration of IFN-γ,"spleen cell; Table 1-1, sample 10 μg/mL",1295.7 ± 165.9 pg/mL
same,Enhancement percentage,"spleen cell; Table 1-1, sample 10 μg/mL",+72.4%
same,Concentration of IFN-γ,"spleen cell; Table 1-1, sample 100 μg/mL",455.5 ± 79.3**↓ pg/mL
same,Enhancement percentage,"spleen cell; Table 1-1, sample 100 μg/mL",−39.4%
same,"3H-TdR incorporation (cpm, x ± SD)","[3]; Table 2-1, sample 10 μg/mL",21697 ± 3489 cpm
same,Enhancement percentage,"[3]; Table 2-1, sample 10 μg/mL",+60.9%
same,"3H-TdR incorporation (cpm, x ± SD)","[3]; Table 2-1, sample 50 μg/mL",22584 ± 1463 cpm
same,Enhancement percentage,"[3]; Table 2-1, sample 50 μg/mL",+67.4%
same,"3H-TdR incorporation (cpm, x ± SD)","[3]; Table 2-1, sample 100 μg/mL",20708 ± 1211 cpm
same,Enhancement percentage,"[3]; Table 2-1, sample 100 μg/mL",+53.5%
same,AUC,[2]; n = 3,120000 ng·h/mL
same,Cmax,[2]; n = 3,6289 ng/mL
same,Tmax,[2]; n = 3,6.000 h
"BMJB020: PEG modification of Tα1 (SDAAVDTSSEITTKDLKEKKEVVEEAEN; ends and bridges not checked; also: PEG conjugate, site not given here; UniProt P06454 2-29, looked up)",Concentration of IFN-γ,"spleen cell; Table 1-3, sample 1 μg/mL",3998.3 ± 157.7 pg/mL
same,Enhancement percentage,"spleen cell; Table 1-3, sample 1 μg/mL",+30.9%
same,Concentration of IFN-γ,"spleen cell; Table 1-3, sample 10 μg/mL",2654.0 ± 211.1 pg/mL
same,Enhancement percentage,"spleen cell; Table 1-3, sample 10 μg/mL",−13.1%
same,Concentration of IFN-γ,"spleen cell; Table 1-3, sample 100 μg/mL",3135.8 ± 195.4 pg/mL
same,Enhancement percentage,"spleen cell; Table 1-3, sample 100 μg/mL",+2.7%
same,AUC,[2]; n = 3,4080 ng·h/mL
same,Cmax,[2]; n = 3,172 ng/mL
same,Tmax,[2]; n = 3,12.000 h
"BMJB012: PEG modification of Tα1, listed after BMJBT001 in Tables 1-2 and 2-2 (SDAAVDTSSEITTKDLKEKKEVVEEAEN; not fully specified; ends and bridges not checked; also: PEG conjugate, site not given here; UniProt P06454 2-29, looked up)",Concentration of IFN-γ,"spleen cell; Table 1-2, sample 1 μg/mL",4224.7 ± 183.1 pg/mL
same,Enhancement percentage,"spleen cell; Table 1-2, sample 1 μg/mL",+29.7%
same,Concentration of IFN-γ,"spleen cell; Table 1-2, sample 10 μg/mL",3115.3 ± 377.1 pg/mL
same,Enhancement percentage,"spleen cell; Table 1-2, sample 10 μg/mL",−4.4%
same,Concentration of IFN-γ,"spleen cell; Table 1-2, sample 100 μg/mL",3277.7 ± 181.0 pg/mL
same,Enhancement percentage,"spleen cell; Table 1-2, sample 100 μg/mL",+0.6%
same,"3H-TdR incorporation (cpm, x ± SD)","[3]; Table 2-2, sample 10 μg/mL",22772 ± 3222 cpm
same,Enhancement percentage,"[3]; Table 2-2, sample 10 μg/mL",+95.6%
same,"3H-TdR incorporation (cpm, x ± SD)","[3]; Table 2-2, sample 50 μg/mL",24066 ± 4004 cpm
same,Enhancement percentage,"[3]; Table 2-2, sample 50 μg/mL",+106.7%
same,"3H-TdR incorporation (cpm, x ± SD)","[3]; Table 2-2, sample 100 μg/mL",25176 ± 3656 cpm
same,Enhancement percentage,"[3]; Table 2-2, sample 100 μg/mL",+116.3%
same,AUC,[2]; n = 3,8150 ng·h/mL
same,Cmax,[2]; n = 3,348 ng/mL
same,Tmax,[2]; n = 3,12.000 h
"Ac-[Cys^8(mPEG5000-MAL)]Tα1 (Ac-SDAAVDTC(mPEG5000‑maleimide)SEITTKDLKEKKEVVEEAEN; UniProt P06454 2-29, looked up, variant S8C) [BMJB008]",t1/2 in liver homogenate,[1],65.2 h
"Ac-[Cys^17(mPEG5000-MAL)]Tα1 (Ac-SDAAVDTSSEITTKDLC(mPEG5000‑maleimide)EKKEVVEEAEN; UniProt P06454 2-29, looked up, variant K17C) [BMJB017]",Concentration of IFN-γ,"spleen cell; Table 1-1, sample 1 μg/mL",1048.9 ± 181.4 pg/mL
same,Enhancement percentage,"spleen cell; Table 1-1, sample 1 μg/mL",+39.5%
same,Concentration of IFN-γ,"spleen cell; Table 1-1, sample 10 μg/mL",856.4 ± 61.8 pg/mL
same,Enhancement percentage,"spleen cell; Table 1-1, sample 10 μg/mL",+13.9%
same,Concentration of IFN-γ,"spleen cell; Table 1-1, sample 100 μg/mL",474.7 ± 10.2**↓ pg/mL
same,Enhancement percentage,"spleen cell; Table 1-1, sample 100 μg/mL",−36.9%
same,"3H-TdR incorporation (cpm, x ± SD)","[3]; Table 2-1, sample 10 μg/mL",18919 ± 3507 cpm
same,Enhancement percentage,"[3]; Table 2-1, sample 10 μg/mL",+40.3%
same,"3H-TdR incorporation (cpm, x ± SD)","[3]; Table 2-1, sample 50 μg/mL",21091 ± 3916 cpm
same,Enhancement percentage,"[3]; Table 2-1, sample 50 μg/mL",+56.4%
same,"3H-TdR incorporation (cpm, x ± SD)","[3]; Table 2-1, sample 100 μg/mL",16778 ± 2483 cpm
same,Enhancement percentage,"[3]; Table 2-1, sample 100 μg/mL",+24.4%
same,AUC,[2]; n = 3,83500 ng·h/mL
same,Cmax,[2]; n = 3,11980 ng/mL
same,Tmax,[2]; n = 3,1.000 h
"Ac-[Cys^5(mPEG5000-MAL)]Tα1 (Ac-SDAAC(mPEG5000‑maleimide)DTSSEITTKDLKEKKEVVEEAEN; UniProt P06454 2-29, looked up, variant V5C) [BMJB005]",t1/2 in liver homogenate,[1],250.0 h
"BMJB015: PEG modification of Tα1, listed after BMJBT004 in Table 1-2 (SDAAVDTSSEITTKDLKEKKEVVEEAEN; ends and bridges not checked; also: PEG conjugate, site not given here; UniProt P06454 2-29, looked up)",Concentration of IFN-γ,"spleen cell; Table 1-2, sample 1 μg/mL",3908.2 ± 147.2 pg/mL
same,Enhancement percentage,"spleen cell; Table 1-2, sample 1 μg/mL",+20.0%
same,Concentration of IFN-γ,"spleen cell; Table 1-2, sample 10 μg/mL",3962.9 ± 137.6 pg/mL
same,Enhancement percentage,"spleen cell; Table 1-2, sample 10 μg/mL",+21.6%
same,Concentration of IFN-γ,"spleen cell; Table 1-2, sample 100 μg/mL",3526.2 ± 68.0 pg/mL
same,Enhancement percentage,"spleen cell; Table 1-2, sample 100 μg/mL",+8.2%
same,AUC,[2]; n = 3,106000 ng·h/mL
same,Cmax,[2]; n = 3,5082 ng/mL
same,Tmax,[2]; n = 3,3.000 h
Ac-SDAAVDTSSEITTKDLKEKKEVVCEAEN-OH [BMJBT007],half-life,[1],0.5 h
same,AUC,[2]; n = 3,17900 ng·h/mL
same,Cmax,[2]; [4],5990 ng/mL
same,Tmax,[2]; [5],0.333 h

# Reference: patent US8080522B2, “Polyethlene glycol modifications of thymosin alpha-1” (Institute of Pharmacology and Toxicology Academy of …, priority 2005, dated 2011)
